Experimental data from patent US7495104B2, “Quinoline or quinazoline derivatives inhibiting auto-phosphorylation of fibroblast growth factor receptors” (Kirin Beer Kabushiki Kaisha, priority 2001, dated 2009).
pIC50: −log10 of the molar value.

molecular target: Bek (Homo sapiens, UniProt P21802); test: Inhibitory activity against Bek-autophosphorylation using ELISA method in OCUM-2MD3 cells; format: cell-based; details: 1 hr with compound, read-out: IC50 (concentration necessary for inhibiting 50% of Bek-phosphorylation)
Sequence (P21802 431-767 limits assumed): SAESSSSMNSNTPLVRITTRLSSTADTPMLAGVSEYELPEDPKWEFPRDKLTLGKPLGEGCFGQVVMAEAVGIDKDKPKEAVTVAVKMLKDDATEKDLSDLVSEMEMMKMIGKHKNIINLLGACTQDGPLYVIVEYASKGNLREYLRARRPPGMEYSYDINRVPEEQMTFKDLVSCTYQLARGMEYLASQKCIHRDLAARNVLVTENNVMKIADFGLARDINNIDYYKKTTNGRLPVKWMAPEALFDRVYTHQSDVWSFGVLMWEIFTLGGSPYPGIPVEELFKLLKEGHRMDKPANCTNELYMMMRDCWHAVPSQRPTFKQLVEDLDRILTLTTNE
Protocol: Human scirrhus stomach cancer cells OCUM-2MD3 (kindly provided by Dr. Kosei Hirakawa, Osaka City University) were cultured in an RPMI medium containing 10% fetal calf serum (purchased from ICN) within a 5% carbon dioxide incubator until 50 to 90% confluent. The harvested cells were seeded onto 96-well flat-bottom plate in RPMI containing 0.1% fetal calf serum at 3.5×10^4 cells per well, followed by cultivation at 37° C. overnight. A solution of the test compound in dimethyl sulfoxide was added to each well, and the cultivation was continued at 37° C. for additional one hr. The medium was removed, and 50 μl of lysis buffer (20 mM HEPES (pH 7.4), 150 mM NaCl, 0.2% Triton X-100, 10% glycerol, 5 mM sodium orthovanadylate, 5 mM disodium ethylenediaminetetraacetate, and 2 mM Na4P2O7) was then added thereto. The mixture was shaken at 4° C. for 2 hr to prepare cell extracts.
Separately, phosphate buffered saline (50 μl, pH 7.4) containing 5 μg/ml of anti-phospho-tyrosine antibody (PY20; purchased from Transduction Laboratories) was added to a microplate for ELISA (Maxisorp; purchased from NUNC), followed by standing at 4° C. overnight to form a solid phase on the wells. After washing of the plate, 300 μl of a blocking solution was added, followed by standing at room temperature for 2 hr to perform blocking. After washing, the whole quantity of the cell extracts was transferred to the wells, and the plate was then allowed to stand at 4° C. overnight. After washing, an anti-Bek antibody (Bek (C-17), purchased from Santa Cruz Biotechnology) or Anti-Human K-sam Rabbit IgG Affinity Purity (purchased from IBL Co., Ltd.) was allowed to react at room temperature for one hr, and, after washing, a peroxidase-labeled anti-rabbit Ig antibody (purchased from Amersham) was allowed to react at room temperature for one hr. After washing, a chromophoric substrate for peroxidase (purchased from Sumitomo Bakelite Co., Ltd.) was added thereto to initiate a reaction. After a suitable level of color development, a reaction termination solution was added to stop the reaction, and the absorbance at 450 nm was measured with a microplate reader. The Bek-phosphorylation activity for each well was determined by presuming the absorbance without the addition of the medicament to be 100% Bek-phosphorylation activity and the absorbance with the addition of a large excess of a positive control (N-{4-[(6,7-dimethoxy-4-quinolyl)oxy]phenyl}-N′-(3,3-dimethylbutyl)urea, 1000 nM) to be 0% Bek-phosphorylation activity. The concentration of the test compound was varied on several levels, the Bek-phosphorylation inhibitory activity was determined for each case, and the concentration of the test compound necessary for inhibiting 50% of Bek-phosphorylation (IC50) was calculated.

| Compound | pIC50 |
| --- | --- |
| COc1cc2c(Oc3ccc(Nc4ccc(C(C)(C)C)cc4)cc3)ccnc2cc1OCC(O)CN1CCCC1 (stereo not shown) [Compound 61, 1-{4-[4-(4-Tert-butyl-phenylamino)phenoxy]-6-methoxyquinolin-7-yloxy}-3-pyrrolidin-1-ylpropan-2-ol] | 6.73 |
| COc1cc2c(Oc3ccc(Nc4ccc(C(C)(C)C)cc4)cc3)ccnc2cc1OCC(O)CN1CCCCC1 (stereo not shown) [Compound 62, 1-{4-[4-(4-Tert-butyl-phenylamino)phenoxy]-6-methoxyquinolin-7-yloxy}-3-piperidin-1-ylpropan-2-ol] | 6.60 |
| COc1cc2c(Oc3ccc(Nc4ccc(C(C)(C)C)cc4)cc3)ccnc2cc1OCC(O)CN1CCCCCC1 (stereo not shown) [Compound 63, 1-Azepan-1-yl-3-{4-[4-(4-tert-butylphenylamino)phenoxy]-6-methoxyquinolin-7-yloxy}propan-2-ol] | 6.61 |
| COc1cc2c(Oc3ccc(Nc4ccc(C(C)(C)C)cc4)cc3)ccnc2cc1OCC(O)CN1CCN(C)CC1 (stereo not shown) [Compound 64, 1-{4-[4-(4-Tert-butylphenylamino)phenoxy]-6-methoxyquinolin-7-yloxy}-3-(4-methylpiperazin-1-yl)propan-2-ol] | 6.75 |
| COc1cc2c(Oc3ccc(Nc4ccc(C(C)(C)C)cc4)cc3)ccnc2cc1OCC(O)CN1CCCN(C)CC1 (stereo not shown) [Compound 65, 1-{4-[4-(4-Tert-butylphenylamino)phenoxy]-6-methoxyquinolin-7-yloxy}-3-(4-methyl-[1,4]diazepin-1-yl)propan-2-ol] | 6.73 |
| CCNCC(O)COc1cc2nccc(Oc3ccc(Nc4ccc(C(C)(C)C)cc4)cc3)c2cc1OC (stereo not shown) [Compound 66, 1-{4-[4-(4-Tert-butylphenylamino)phenoxy]-6-methoxyquinolin-7-yloxy}-3-ethylaminopropan-2-ol] | 6.70 |
| COc1cc2c(Oc3ccc(Nc4ccc(C(C)(C)C)cc4)cc3)ccnc2cc1OCC(O)CN(C)C (stereo not shown) [Compound 67, 1-{4-[4-(4-Tert-butylphenylamino)phenoxy]-6-methoxyquinolin-7-yloxy}-3-dimethylaminopropan-2-ol] | 6.72 |
| COc1cc2c(Oc3ccc(Nc4ccc(C(C)(C)C)cc4)cc3)ccnc2cc1OCCN1C[C@@H](C)O[C@@H](C)C1 [Compound 68, (4-Tert-butylphenyl)-(4-{7-[2-(2,6-dimethylmorpholin-4-yl)ethoxy]-6-methoxyquinolin-4-yloxy}phenyl)amine] | 6.61 |
| COc1cc2c(Oc3ccc(Nc4ccc(C(C)(C)C)cc4)cc3)ccnc2cc1OCCCN1C[C@@H](C)O[C@@H](C)C1 [Compound 69, (4-Tert-butylphenyl)-(4-{7-[3-(2,6-dimethylmorpholin-4-yl)propoxy]-6-methoxyquinolin-4-yloxy}phenyl)amine] | 6.61 |
| COc1cc2c(Oc3ccc(Nc4ccc(C(C)(C)C)cc4)cc3)ccnc2cc1OC[C@H](O)CN1CCOCC1 [Compound 70, (R)-1-{4-[4-(4-Tert-butylphenylamino)phenoxy]-6-methoxyquinolin-7-yloxy}-3-morpholin-4-ylpropan-2-ol] | 7.16 |
| COc1cc2c(Oc3ccc(Nc4ccc(C(C)(C)C)cc4)cc3)ccnc2cc1OC[C@@H](O)CN1CCOCC1 [Compound 71, (s)-1-{4-[4-(4-Tert-butylphenylamino)phenoxy]-6-methoxyquinolin-7-yloxy}-3-morpholin-4-ylpropan-2-ol] | 7.21 |
| COc1cc2ncnc(Oc3ccc(Nc4ccc(C(C)C)cc4)cc3)c2cc1OC [Compound 72, [4-(6,7-Dimethoxyquinazolin-4-yloxy)phenyl]-(4-isopropyl-phenyl)amine] | 6.08 |
| COc1cc2nccc(Oc3ccc(Nc4ccsc4)cc3)c2cc1OC [Compound 73, [4-(6,7-Dimethoxyquinolin-4-yloxy)phenyl]thiophen-3-ylamine] | 5.45 |
| COc1cc2ncnc(Oc3ccc(Nc4ccc(C(C)(C)C)cc4)cc3)c2cc1OC [Compound 74, (4-Tert-butylphenyl)-[4-(6,7-dimethoxyquinazolin-4-yloxy)-phenyl]amine] | 6.28 |
| COc1cc2nccc(Oc3ccc(Nc4nc(C)c(C)s4)cc3)c2cc1OC [Compound 75, [4-(6,7-Dimethoxyquinolin-4-yloxy)phenyl]-(4,5-dimethylthiazol-2-yl)amine] | 5.28 |
| COc1cc2nccc(Oc3ccc(Nc4nn(-c5ccccc5)c(=O)o4)cc3)c2cc1OC [Compound 76, 5-[4-(6,7-Dimethoxyquinolin-4-yloxy)phenylamino]-3-phenyl-3H-[1,3,4]oxazol-2-one] | 5.12 |

| Compound | pIC50 |
| --- | --- |
| COc1cc2nccc(Oc3ccc(NC4CCC(C(C)(C)C)CC4)cc3)c2cc1OC (stereo not shown) [Compound 77, (4-Tert-butylcyclohexyl)-[4-(6,7-dimethoxyquinolin-4-yloxy)phenyl]amine] | 5.46 |
| COc1cc2c(Oc3ccc(Nc4ccc(C(C)(C)C)cc4)cc3)ncnc2cc1OCCN1CCOCC1 [Compound 78, (4-Tert-butylphenyl)-{4-[6-methoxy-7-(2-morpholin-4-ylethoxy)quinazolin-4-yloxy]phenyl}amine] | 6.56 |
| COc1cc2c(Oc3ccc(Nc4ccc(C(C)(C)C)cc4)c(F)c3)ccnc2cc1OCCN1CCOCC1 [Compound 79, (4-Tert-butylphenyl)-{2-fluoro-4-[6-methoxy-7-(2-morpholin-4-ylethoxy)quinolin-4-yloxy]phenyl}amine] | 6.80 |
| COc1cc2c(Oc3ccc(Nc4ccc(C(C)(C)C)cc4)cc3)ccnc2cc1OCCC(C)N1CCOCC1 (stereo not shown) [Compound 80, (4-Tert-butylphenyl)-{4-[6-methoxy-7-(3-morpholin-4-ylbutoxy)-quinolin-4-yloxy]phenyl}amine] | 6.82 |
| COc1cc2c(Oc3ccc(Nc4ccc(C(C)(C)C)cc4)cc3)ccnc2cc1OCCN1CCC(CO)CC1 [Compound 81, [1-(2-{4-[4-(4-Tert-butylphenylamino)phenoxy]-6-methoxy-quinolin-7-yloxy}ethyl)piperidin-4-yl]methanol] | 8.00 |
| COc1cc2c(Oc3ccc(Nc4ccc(C(C)(C)C)cc4)cc3)ccnc2cc1OCCN1CCC(O)CC1 [Compound 82, 1-(2-{4-[4-(4-Tert-butylphenylamino)phenoxy]-6-methoxy-quinolin-7-yloxy}ethyl)piperidin-4-ol] | 7.15 |
| COc1cc2c(Oc3ccc(NC(=O)NCCC(C)(C)C)cc3)ccnc2cc1OCCCN1CCC(O)CC1 [Compound 96, 1-(3,3-Dimethyl-butyl)-3-(4-{7-[3-(4-hydroxy-piperidin-1-yl)-propoxy]-6-methoxy-quinolin-4-yloxy}-phenyl)-urea] | > 8.00 |
| COc1cc2nccc(Oc3ccc(NC(=O)NCCC(C)(C)C)cc3)c2cc1OC [Compound 101, 1-[4-(6,7-Dimethoxy-quinolin-4-yloxy)-phenyl]-3-(3,3-dimethyl-butyl)-urea] | > 8.00 |
| COc1cc2nccc(Oc3ccc(NC(=O)NCCC(C)(C)C)cc3F)c2cc1OC [Compound 102, 1-[4-(6,7-Dimethoxy-quinolin-4-yloxy)-3-fluorophenyl]-3-(3,3-dimethyl-butyl)-urea] | 7.56 |
| COc1cc2nccc(Oc3ccc(NC(=O)NCCC(C)(C)C)c(Cl)c3)c2cc1OC [Compound 103, 1-[2-Chloro-4-(6,7-dimethoxyquinolin-4-yloxy)-phenyl]-3-(3,3-dimethyl-butyl)-urea] | 7.53 |
| COc1cc2nccc(Oc3ccc(NC(=O)NC4CC(C)CC(C)(C)C4)cc3)c2cc1OC (stereo not shown) [Compound 105, 1-[4-(6,7-Dimethoxy-quinolin-4-yloxy)-phenyl]-3-(3,3,5-trimethyl-cyclohexyl)-urea] | 7.51 |
| COc1cc2nccc(Oc3ccc(NC(=O)NC4CC(C)CC(C)(C)C4)c(F)c3)c2cc1OC (stereo not shown) [Compound 106, 1-[4-(6,7-Dimethoxy-quinolin-4-yloxy)-2-fluoro-phenyl]-3-(3,3,5-trimethyl-cyclohexyl)-urea] | 7.71 |
| COc1cc2nccc(Oc3ccc(NC(=O)NC4CC(C)CC(C)(C)C4)c(Cl)c3)c2cc1OC (stereo not shown) [Compound 107, 1-[2-Chloro-4-(6,7-dimethoxy-quinolin-4-yloxy)-phenyl]-3-(3,3,5-trimethyl-cyclohexyl)-urea] | > 8.00 |
| COc1cc2nccc(Oc3ccc(NC(=O)NC4CCCC(C)(C)C4)cc3)c2cc1OC (stereo not shown) [Compound 108, 1-[4-(6,7-Dimethoxy-quinolin-4-yloxy)-phenyl]-3-(3,3-dimethyl-cyclohexyl)-urea] | > 8.00 |
| COc1cc2nccc(Oc3ccc(NC(=O)NC4CCCC(C)(C)C4)c(F)c3)c2cc1OC (stereo not shown) [Compound 109, 1-[4-(6,7-Dimethoxy-quinolin-4-yloxy)-2-fluoro-phenyl]-3-(3,3-dimethyl-cyclohexyl)-urea] | > 8.00 |
